Test results from ChEMBL document CHEMBL1201862, “PubChem BioAssay data set” (2004).
The source made the active and inactive calls.

Tests used:
[1] = target: FAD-linked sulfhydryl oxidase ALR (Homo sapiens, UniProt P55789); test: inhibitors of human ALR sulfhydryl oxidase, dose response, biochemical, H2O2 detection, luminescence, cherry-pick (AID 493248)
[2] = target: SWI/SNF-related matrix-associated actin-dependent regulator of chromatin subfamily A member 2 (Homo sapiens, UniProt P51531); test: Luminescence-based cell-based high throughput dose response assay to identify activators of the function of SWI/SNF related, matrix associated, actin dependent regulator of chromatin, subfamily a, member 2 (SMARCA2, BRM).; assay type: functional
Sequence of SWI/SNF-related matrix-associated actin-dependent regulator of chromatin subfamily A member 2 (P51531 whole entry): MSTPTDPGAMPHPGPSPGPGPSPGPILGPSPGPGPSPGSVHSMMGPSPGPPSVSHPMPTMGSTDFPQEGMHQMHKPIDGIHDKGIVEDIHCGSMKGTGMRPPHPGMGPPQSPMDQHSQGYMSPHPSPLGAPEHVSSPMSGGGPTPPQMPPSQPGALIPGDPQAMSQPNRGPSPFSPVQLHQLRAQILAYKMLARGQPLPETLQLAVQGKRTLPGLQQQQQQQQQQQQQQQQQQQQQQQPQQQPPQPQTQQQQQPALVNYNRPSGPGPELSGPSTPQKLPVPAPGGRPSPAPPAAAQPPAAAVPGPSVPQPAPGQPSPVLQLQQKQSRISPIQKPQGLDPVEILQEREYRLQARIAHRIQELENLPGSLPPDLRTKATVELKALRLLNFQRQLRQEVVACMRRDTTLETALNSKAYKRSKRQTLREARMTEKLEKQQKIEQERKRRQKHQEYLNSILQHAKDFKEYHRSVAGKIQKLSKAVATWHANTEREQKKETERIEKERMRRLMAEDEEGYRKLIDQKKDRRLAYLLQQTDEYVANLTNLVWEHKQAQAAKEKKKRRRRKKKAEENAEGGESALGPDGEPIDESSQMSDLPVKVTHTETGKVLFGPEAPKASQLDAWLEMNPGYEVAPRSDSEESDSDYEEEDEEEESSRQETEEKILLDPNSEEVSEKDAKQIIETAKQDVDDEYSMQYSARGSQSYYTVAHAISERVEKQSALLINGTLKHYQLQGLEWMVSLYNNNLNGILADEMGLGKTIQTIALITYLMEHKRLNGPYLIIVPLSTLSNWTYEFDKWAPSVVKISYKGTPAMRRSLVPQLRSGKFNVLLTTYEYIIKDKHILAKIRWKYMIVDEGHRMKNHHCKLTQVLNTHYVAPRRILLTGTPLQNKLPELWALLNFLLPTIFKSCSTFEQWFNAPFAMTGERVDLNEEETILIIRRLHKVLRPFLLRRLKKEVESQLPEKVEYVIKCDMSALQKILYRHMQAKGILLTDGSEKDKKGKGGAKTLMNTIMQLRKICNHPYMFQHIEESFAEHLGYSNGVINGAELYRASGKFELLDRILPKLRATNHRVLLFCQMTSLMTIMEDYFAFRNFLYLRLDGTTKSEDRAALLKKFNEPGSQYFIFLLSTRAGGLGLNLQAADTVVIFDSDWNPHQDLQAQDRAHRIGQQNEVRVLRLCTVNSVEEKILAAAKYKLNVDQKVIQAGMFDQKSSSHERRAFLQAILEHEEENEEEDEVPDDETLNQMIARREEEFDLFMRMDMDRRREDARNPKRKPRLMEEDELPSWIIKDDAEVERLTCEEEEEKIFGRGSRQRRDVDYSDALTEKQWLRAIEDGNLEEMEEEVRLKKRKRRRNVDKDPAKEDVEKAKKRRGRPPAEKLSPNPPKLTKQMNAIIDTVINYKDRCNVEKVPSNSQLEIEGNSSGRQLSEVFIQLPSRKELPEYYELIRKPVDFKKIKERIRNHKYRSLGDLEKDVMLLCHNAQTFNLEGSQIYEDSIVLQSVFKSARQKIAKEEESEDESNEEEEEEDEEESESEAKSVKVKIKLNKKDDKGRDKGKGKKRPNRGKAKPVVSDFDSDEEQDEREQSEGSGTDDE

[3] = Counterscreen for activators of the function of SWI/SNF related, matrix associated, actin dependent regulator of chromatin, subfamily a, member 2 (SMARCA2, BRM): Luminescence-based cell-based high throughput dose response assay to identify non-selective compounds using the VP16 reporter assay.; assay type: functional
[4] = Fluorescence-based cell-based high throughput dose response assay for inhibitors of the interaction of nucleotide-binding oligomerization domain containing 2 (NOD2) and the receptor-interacting serine-threonine kinase 2 (RIPK2).; assay type: functional; details: Homo sapiens
[5] = HepG2 cell cytotoxicity, dose response, cytotoxicity control for Shn3 inhibitor project, CellTiter-Glo, cherry-picked (AID 624134); assay type: functional, cell-based
[6] = control 3'UTR Renilla luciferase suppression, dose response, counter-screen for Shn3 inhibitor project, cell-based, Clone20-Shn3RL, cherry-picked (AID 624133); assay type: functional
[7] = Shn3 3'UTR reporter inhibitors, dose response, cell-based, Clone20 osteoblasts, firefly luciferase, cherry-picked (AID 624132); assay type: functional;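 note: firefly luciferase luminescence from reporter carrying the Shn3 3'UTR in osteoblasts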
Protein RecA = target: T1, Protein RecA (Mycobacterium tuberculosis, UniProt P9WHJ3); test: Fluorescence Cell-Free Homogeneous Dose Retest to Identify Inhibitors of RecA-Intein Splicing Activity. [Related pubchem assays (depositor defined):AID2097, AID2223, AID489010, AID492950]; assay type: functional
T1 sequence (P9WHJ3 whole entry): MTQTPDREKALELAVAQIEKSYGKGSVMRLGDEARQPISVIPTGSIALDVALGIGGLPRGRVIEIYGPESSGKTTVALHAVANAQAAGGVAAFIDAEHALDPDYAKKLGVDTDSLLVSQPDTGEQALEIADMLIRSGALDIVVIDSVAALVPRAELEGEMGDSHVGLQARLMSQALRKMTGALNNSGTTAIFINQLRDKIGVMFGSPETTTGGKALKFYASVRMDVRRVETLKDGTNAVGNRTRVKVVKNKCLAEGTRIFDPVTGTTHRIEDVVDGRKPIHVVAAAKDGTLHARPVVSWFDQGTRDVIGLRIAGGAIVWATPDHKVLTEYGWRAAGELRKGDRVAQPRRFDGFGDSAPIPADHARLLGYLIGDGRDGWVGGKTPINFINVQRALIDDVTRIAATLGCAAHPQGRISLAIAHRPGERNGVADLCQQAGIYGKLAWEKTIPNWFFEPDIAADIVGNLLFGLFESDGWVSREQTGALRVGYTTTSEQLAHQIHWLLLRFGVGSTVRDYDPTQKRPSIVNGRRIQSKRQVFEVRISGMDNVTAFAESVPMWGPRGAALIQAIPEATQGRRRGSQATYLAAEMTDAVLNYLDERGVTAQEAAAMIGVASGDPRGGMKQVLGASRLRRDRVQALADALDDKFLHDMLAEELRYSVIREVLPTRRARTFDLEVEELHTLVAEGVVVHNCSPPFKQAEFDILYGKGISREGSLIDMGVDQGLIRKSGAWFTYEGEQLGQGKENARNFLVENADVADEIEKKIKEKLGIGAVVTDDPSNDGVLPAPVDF

Beta Lactamase = Beta Lactamase (Pseudomonas aeruginosa, UniProt Q932Y6); test: beta-lactamase reporter inhibitor potency, dose response, artefact control for NOD2-RIPK2 interaction inhibitor project, BLA reporter cells, FRET fluorescence (AID 651552); assay type: functional, cell-based
Sequence of Beta Lactamase (Q932Y6 whole entry): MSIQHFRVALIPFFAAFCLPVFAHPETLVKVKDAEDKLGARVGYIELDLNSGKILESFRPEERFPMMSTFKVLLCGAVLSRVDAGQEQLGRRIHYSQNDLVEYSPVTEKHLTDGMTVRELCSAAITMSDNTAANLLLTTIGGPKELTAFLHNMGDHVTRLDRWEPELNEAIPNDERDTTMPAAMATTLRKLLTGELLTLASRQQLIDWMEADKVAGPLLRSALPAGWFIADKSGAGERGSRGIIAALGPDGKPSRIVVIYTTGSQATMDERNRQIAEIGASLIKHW

[8] = target: T2, Replicative DNA helicase DnaB (Mycobacterium tuberculosis, UniProt P9WMR3); test: DnaB intein splicing inhibitors, dose response, biochemical, cell-free fluorescence (AID 449749); assay type: functional
T2 sequence (P9WMR3 whole entry): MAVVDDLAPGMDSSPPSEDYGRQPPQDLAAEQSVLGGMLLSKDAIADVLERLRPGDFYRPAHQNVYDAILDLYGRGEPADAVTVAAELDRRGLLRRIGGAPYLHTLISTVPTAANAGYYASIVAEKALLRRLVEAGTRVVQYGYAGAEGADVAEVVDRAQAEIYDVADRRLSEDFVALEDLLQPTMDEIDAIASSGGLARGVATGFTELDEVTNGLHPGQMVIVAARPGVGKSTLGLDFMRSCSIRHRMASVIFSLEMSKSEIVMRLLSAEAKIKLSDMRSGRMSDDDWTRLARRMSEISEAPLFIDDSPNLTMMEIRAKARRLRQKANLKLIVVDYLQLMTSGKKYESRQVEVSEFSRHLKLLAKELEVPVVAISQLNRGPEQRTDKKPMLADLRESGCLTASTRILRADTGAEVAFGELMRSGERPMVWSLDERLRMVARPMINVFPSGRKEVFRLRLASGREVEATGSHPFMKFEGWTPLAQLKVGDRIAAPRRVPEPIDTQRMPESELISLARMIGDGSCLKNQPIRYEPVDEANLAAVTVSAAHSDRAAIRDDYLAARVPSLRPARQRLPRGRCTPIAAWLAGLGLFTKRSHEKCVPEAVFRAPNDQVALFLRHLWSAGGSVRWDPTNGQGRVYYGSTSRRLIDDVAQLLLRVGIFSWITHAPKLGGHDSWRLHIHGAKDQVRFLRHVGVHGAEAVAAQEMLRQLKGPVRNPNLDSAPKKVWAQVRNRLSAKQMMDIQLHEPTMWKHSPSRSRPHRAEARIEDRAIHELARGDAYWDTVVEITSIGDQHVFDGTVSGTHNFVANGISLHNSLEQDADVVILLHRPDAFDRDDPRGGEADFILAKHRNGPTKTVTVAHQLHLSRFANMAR

cells = assay type: functional, cell-based
Protein Wnt-3a [9] = target: T3, Protein Wnt-3a (Mus musculus, UniProt P27467); test: Wnt3a-driven reporter signaling inhibition, dose response, selectivity assay for Gli-SUFU antagonist project, Wnt-LIGHT cells, luminescence (AID 651570); assay type: functional; details: read-out: IC50_Mean;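 note: Wnt-LIGHT reporter cells stimulated with conditioned medium from Wnt3a-producing cells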
T3 sequence (P27467 whole entry): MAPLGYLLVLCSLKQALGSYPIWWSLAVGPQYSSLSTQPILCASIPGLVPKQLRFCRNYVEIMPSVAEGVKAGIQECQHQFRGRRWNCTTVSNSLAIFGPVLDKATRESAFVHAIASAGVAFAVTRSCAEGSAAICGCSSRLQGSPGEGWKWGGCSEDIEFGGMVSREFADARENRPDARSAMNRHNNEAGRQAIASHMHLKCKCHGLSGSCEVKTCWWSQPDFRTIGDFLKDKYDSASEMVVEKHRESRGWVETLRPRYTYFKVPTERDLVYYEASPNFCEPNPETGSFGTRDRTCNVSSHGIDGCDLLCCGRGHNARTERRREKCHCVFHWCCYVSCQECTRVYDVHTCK

[10] = cytotoxicity in HEK-293T cells, dose response, cytotoxicity control for BCR NF-kB inhibitor project, luminescence, B-cell screen hits (AID 489021); assay type: functional, cell-based;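 note: HEK-293T cells carrying an NF-kB luciferase reporter; cells exposed to compound for about 14 hours before viability readout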
Protein Wnt-3a [11] = target: T3, Protein Wnt-3a; test: SAR analysis of small molecule antagonists of Gli-SUFU in a Wnt3a luminescent reporter assay.; assay type: functional
[12] = HeLa cell cytotoxicity, dose response, cytotoxicity control for MgcRacGAP inhibitor project (AID 624300); assay type: functional
[13] = target: T4, Rac GTPase-activating protein 1 (Homo sapiens, UniProt Q9H0H5); test: MgcRacGAP GTPase-activating activity inhibitors, confirmation, biochemical, ADP Hunter fluorescence, primary and confirmatory (AID 624330); assay type: functional
T4 sequence (Q9H0H5 whole entry): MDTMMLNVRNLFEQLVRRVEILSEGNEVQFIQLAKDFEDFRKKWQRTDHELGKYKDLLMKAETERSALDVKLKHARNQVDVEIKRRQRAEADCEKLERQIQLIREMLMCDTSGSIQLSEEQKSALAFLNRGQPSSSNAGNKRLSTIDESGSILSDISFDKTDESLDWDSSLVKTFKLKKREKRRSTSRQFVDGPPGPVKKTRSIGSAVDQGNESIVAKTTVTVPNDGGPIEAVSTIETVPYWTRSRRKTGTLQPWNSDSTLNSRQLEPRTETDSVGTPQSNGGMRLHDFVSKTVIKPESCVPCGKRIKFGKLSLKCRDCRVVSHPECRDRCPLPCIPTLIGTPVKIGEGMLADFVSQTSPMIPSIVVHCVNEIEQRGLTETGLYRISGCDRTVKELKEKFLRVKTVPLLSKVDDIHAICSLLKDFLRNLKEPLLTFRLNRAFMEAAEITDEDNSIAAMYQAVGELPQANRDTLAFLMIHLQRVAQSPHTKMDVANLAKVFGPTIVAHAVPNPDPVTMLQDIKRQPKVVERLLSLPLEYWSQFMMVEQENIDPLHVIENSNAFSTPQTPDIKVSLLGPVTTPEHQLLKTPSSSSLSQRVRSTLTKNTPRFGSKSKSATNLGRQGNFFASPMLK

[14] = target: Glucose-6-phosphate 1-dehydrogenase (Homo sapiens, UniProt P11413); test: human G6PD enzyme inhibitors, dose response, selectivity assay for P. falciparum G6PD inhibitor project, biochemical, fluorescence (AID 504792); assay type: functional
Sequence of Glucose-6-phosphate 1-dehydrogenase (P11413 whole entry): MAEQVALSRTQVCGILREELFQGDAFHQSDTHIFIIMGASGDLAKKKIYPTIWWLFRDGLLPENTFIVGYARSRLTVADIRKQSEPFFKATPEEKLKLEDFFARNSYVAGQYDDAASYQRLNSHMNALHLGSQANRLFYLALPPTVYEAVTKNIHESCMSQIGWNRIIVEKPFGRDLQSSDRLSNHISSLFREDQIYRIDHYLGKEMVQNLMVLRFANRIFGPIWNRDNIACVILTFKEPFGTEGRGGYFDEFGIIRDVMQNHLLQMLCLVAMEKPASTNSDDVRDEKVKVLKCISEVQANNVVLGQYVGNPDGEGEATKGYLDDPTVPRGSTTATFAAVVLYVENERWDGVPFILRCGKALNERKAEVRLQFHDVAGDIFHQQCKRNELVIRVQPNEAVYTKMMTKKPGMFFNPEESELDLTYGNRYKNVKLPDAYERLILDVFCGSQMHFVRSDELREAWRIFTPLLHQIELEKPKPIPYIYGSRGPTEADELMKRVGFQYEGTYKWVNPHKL

Genome polyprotein = Genome polyprotein (dengue virus type 2, UniProt P29990); test: Dengue-2 NS5 methyltransferase inhibitors, primary screen, biochemical, confirmation dose response (AID 588689); assay type: functional
Sequence of Genome polyprotein (P29990 2492-3391 limits assumed): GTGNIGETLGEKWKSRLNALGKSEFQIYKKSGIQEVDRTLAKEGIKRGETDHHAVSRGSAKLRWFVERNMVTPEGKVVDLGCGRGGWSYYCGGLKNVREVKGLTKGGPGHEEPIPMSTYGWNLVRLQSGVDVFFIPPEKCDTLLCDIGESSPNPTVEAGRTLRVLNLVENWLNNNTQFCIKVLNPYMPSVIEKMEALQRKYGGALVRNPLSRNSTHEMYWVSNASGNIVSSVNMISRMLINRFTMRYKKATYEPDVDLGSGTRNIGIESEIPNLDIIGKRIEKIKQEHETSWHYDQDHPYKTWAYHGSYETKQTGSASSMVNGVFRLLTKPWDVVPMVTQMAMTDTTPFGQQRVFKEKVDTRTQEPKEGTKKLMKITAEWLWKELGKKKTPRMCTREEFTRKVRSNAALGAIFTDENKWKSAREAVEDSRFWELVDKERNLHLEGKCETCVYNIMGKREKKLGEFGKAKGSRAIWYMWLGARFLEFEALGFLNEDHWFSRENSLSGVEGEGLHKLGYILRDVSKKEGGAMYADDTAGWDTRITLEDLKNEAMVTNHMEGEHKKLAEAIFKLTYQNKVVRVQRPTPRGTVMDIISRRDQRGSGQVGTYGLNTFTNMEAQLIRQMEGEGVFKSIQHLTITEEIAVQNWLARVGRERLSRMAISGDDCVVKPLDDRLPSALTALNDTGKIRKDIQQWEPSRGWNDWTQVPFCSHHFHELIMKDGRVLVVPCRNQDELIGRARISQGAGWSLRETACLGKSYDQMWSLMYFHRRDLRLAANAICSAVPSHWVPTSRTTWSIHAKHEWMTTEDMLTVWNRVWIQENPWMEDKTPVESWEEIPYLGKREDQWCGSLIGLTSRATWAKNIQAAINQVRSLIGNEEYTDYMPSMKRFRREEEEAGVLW

Vero = Vero cell cytotoxicity, cytotoxicity control for flavivirus capping enzyme inhibitors (AID 588742); assay type: functional; details: Chlorocebus sabaeus
[15] = target: Photoreceptor-specific nuclear receptor (Homo sapiens, UniProt Q9Y5X4); assay type: functional, cell-based;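 note: CHO-S cells with Gal4-NCOR and VP16-NR2E3 two-hybrid luciferase reporter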
Sequence of Photoreceptor-specific nuclear receptor (Q9Y5X4 whole entry, the tested form may be a part): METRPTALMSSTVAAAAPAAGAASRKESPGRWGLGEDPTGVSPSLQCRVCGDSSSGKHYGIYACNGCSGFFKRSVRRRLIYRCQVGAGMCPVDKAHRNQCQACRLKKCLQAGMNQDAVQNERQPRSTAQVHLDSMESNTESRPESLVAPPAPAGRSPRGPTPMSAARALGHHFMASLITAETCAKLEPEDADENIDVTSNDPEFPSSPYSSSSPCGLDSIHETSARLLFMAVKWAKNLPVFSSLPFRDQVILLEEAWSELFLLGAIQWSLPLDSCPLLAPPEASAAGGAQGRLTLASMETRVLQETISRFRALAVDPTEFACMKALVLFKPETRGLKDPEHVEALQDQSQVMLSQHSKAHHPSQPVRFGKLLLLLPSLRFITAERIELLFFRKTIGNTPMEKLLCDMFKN

[16] = target: Heat shock protein HSP 90-alpha (Homo sapiens, UniProt P07900); assay type: functional, organism-based
[17] = HEK293T cell cytotoxicity, dose response, cytotoxicity control for HIV Vif inhibitor project, cherry-picks (AID 652208); assay type: functional, cell-based
[18] = NIH:OVCAR-3 ovarian cancer cell cytotoxicity, dose response, PAX8 inhibitor project, plate reader, dry powder samples (AID 743044); assay type: functional, cell-based
Paired box protein Pax-8 = Paired box protein Pax-8 (Homo sapiens, UniProt Q06710); test: inhibitors of PAX8-driven TPO luciferase reporter, dose response, RMG-I cells, cherry-pick (AID 687027); assay type: functional, cell-based;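 note: luciferase reporter driven by Pax8 target thyroperoxidase promoter measured by SteadyGlo luminescence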
Sequence of Paired box protein Pax-8 (Q06710 whole entry): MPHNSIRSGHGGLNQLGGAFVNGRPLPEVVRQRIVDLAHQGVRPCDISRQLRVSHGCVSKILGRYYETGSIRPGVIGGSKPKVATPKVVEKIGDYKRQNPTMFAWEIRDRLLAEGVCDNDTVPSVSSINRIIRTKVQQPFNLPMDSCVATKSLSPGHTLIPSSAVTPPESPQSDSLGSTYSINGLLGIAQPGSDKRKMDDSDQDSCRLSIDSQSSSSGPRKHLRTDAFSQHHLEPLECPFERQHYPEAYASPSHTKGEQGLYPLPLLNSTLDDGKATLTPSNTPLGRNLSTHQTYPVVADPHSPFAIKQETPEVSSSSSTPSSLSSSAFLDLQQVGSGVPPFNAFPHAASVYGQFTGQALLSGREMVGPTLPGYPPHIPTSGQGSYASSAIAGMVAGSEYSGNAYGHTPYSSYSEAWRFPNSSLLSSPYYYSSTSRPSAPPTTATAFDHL

[19] = NIH/3T3 fibroblast cytotoxicity, dose response, cytotoxicity control for T. cruzi growth inhibitor project, cell-based, cherry-pick samples, set 2 (AID 651817); assay type: functional; details: NIH3T3
[20] = IGROV1 ovarian cancer cell cytotoxicity, dose response, PAX8 inhibitor project, plate reader, dry powder samples (AID 743043); assay type: functional, cell-based; details: IGROV-1
[21] = non-specific cell cytotoxicity, dose response, cytotoxicity control for PAX8 inhibitor project, plate reader, dry powder samples (AID 743021); assay type: functional, cell-based
[22] = miR-122 activators in hepatoma reporter cells, dose response, cell-based, Huh7 psiCHECK-miR122, Renilla luciferase, cherry-picked (AID 651956); assay type: functional;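 note: huh7 hepatoma cells stably carrying a psiCHECK-2 miR-122 sensor plasmid; renilla luciferase signal reporting endogenous miR-122 activity after 48 h compound exposure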
[23] = HEK293T cytotoxicity, dose response, cytotoxicity control for miR-122 modulator project, cell-based, activator set, cherry-pick (AID 720690); assay type: functional;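 note: HEK293T human cells scored for general mammalian cytotoxicity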
[24] = cytotoxicity in OVCAR8 ovarian cancer cells, dose response, PAX8 project, cell-based, plate reader, dry powder samples (AID 743197); assay type: functional; details: OVCAR-8
[25] = inhibitors of CMV-promoter luciferase reporter, dose response, counter-screen for Pax8 inhibitor project, cell-based, HEK293, luminescence, dry powder (AID 743020); assay type: functional

Sequence of FAD-linked sulfhydryl oxidase ALR (P55789 whole entry): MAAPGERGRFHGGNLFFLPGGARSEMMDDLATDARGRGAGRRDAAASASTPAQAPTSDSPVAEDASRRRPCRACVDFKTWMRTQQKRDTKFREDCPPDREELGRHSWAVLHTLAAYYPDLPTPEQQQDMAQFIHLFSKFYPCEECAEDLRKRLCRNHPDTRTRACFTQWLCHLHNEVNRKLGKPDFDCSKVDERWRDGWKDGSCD

## CN(C)P(=O)(C(Cl)=C(N1CCCCC1)N1CCCCC1)N(C)C
[1]
  AC50: 41.1 µM (active)
[2]
  EC50: > 91.1 µM (inactive)
[3]
  EC50: > 91.1 µM (inactive)

## COc1ccc(CNC(=O)c2nc(S(=O)(=O)Cc3ccccc3)ncc2Cl)cc1
[4]
  IC50: 2.96 µM (active)
[5]
  AC50: 30.8 µM (active)
[6]
  AC50: 7.01 µM (active)
[7]
  AC50: 0.956 µM (active)
Protein RecA
  EC50: 4.07 µM (active)
Beta Lactamase
  IC50: 21 µM (inactive)
[8]
  AC50: 4.17 µM (active)

## CCc1nnc(NS(=O)(=O)c2ccc(NC=C3C(=O)CC(C)(C)CC3=O)cc2)s1
cells
  IC50: 60.8 µM (inactive)

## CCOc1ccc(S(=O)(=O)NCc2ccncc2)cc1NC(=O)c1ccccc1
Protein Wnt-3a [9]
  IC50: 33.2 µM (inactive)
[10]
  IC50: > 80 µM (inactive)
Protein Wnt-3a [11]
  IC50: > 21.8 µM (inactive)

## CCc1nc(C)cc2c1sc1ccccc12
[2]
  EC50: > 91.2 µM (inactive)
[3]
  EC50: > 91.2 µM (inactive)

## O=C1NC(=O)N(c2ccc(Cl)cc2)C(=O)/C1=C\Nc1ccc(S(=O)(=O)Nc2nccs2)cc1
cells
  IC50: 74.7 µM (inactive)

## O=C1/C(=C\c2ccc([N+](=O)[O-])cc2)CS(=O)(=O)C/C1=C/c1ccc([N+](=O)[O-])cc1
[12]
  CC50: 25 µM (active)
[4]
  IC50: 0.93 µM (active)
[13]
  IC50: 24.8 µM (active)
[14]
  IC50: > 80 µM (inactive)
Genome polyprotein
  IC50: > 100 µM (active)
Vero
  CC50: 0.46 µM (active)
[15]
  IC50: 2 µM (active)
[16]
  AC50: 0.353 µM (active)
Beta Lactamase
  IC50: 36.4 µM (inactive)

## O=C(c1cc(-c2ccncc2)nc2ccccc12)N1CCN(Cc2ccccc2)CC1
[17]
  AC50: > 52 µM (inactive)

## Cc1ccc(S(=O)(=O)Nc2ccc3c(c2)CC(=O)N([C@@H](C)CO)C[C@@H](C)[C@H](CN(C)Cc2ccc(Cl)c(Cl)c2)O3)cc1
[18]
  AC50: 31.8 µM (active)
Paired box protein Pax-8
  AC50: 5.67 µM (active)
[19]
  AC50: 12.3 µM (active)
[20]
  AC50: 49.9 µM (active)

## COc1cc(C=C2C(=O)C=CC2=O)ccc1O
[21]
  AC50: 19.1 µM (active)
Paired box protein Pax-8
  AC50: 1.63 µM (active)

## CN1C(=O)c2cc(NS(=O)(=O)c3ccc(Cl)cc3)ccc2OC[C@@H]2O[C@H](CC(=O)N3CCc4ccccc4C3)CC[C@H]21
[22]
  AC50: 19.1 µM (active)
[23]
  AC50: 46.9 µM (active)

## C[C@H](CO)N1C[C@H](C)[C@H](CN(C)Cc2ccc(Cl)c(Cl)c2)Oc2ccc(NS(=O)(=O)c3ccc(F)cc3)cc2CC1=O
[19]
  AC50: 9.99 µM (active)

## COc1ccc(NC(=O)N(C)C[C@H]2OCCCC[C@@H](C)Oc3ccc(NC(=O)Nc4ccc(C(F)(F)F)cc4)cc3C(=O)N([C@@H](C)CO)C[C@@H]2C)cc1
[18]
  AC50: 24 µM (active)
[24]
  AC50: > 70 µM (inactive)
Paired box protein Pax-8
  AC50: 3.41 µM (active)
[25]
  AC50: 41 µM (active)

## CC(C)CNc1cc(NC(=O)c2ccccc2)ncn1
Protein Wnt-3a [11]
  IC50: > 21.8 µM (inactive)
